From publication PMC6017605, “In Silico Discovery of a Substituted 6-Methoxy-quinaldine with Leishmanicidal Activity in Leishmania infantum” (Molecules, 2018) come the findings set out here.

The target of this experiment is T1, NDH-2 from S. aureus (SaNDH2, type 2 NADH:quinone oxidoreductase) (Staphylococcus aureus, UniProt Q2FZV7).
T1 construct: gene SAOUHSC_00878; recombinant NDH-2
Nature of the experiment: steady-state NADH oxidation assay at […] nm with DMN as electron acceptor, […] enzyme. The experiment is classed as biochemical.

Each structure is given as a SMILES string.

T1 sequence (Q2FZV7 whole entry): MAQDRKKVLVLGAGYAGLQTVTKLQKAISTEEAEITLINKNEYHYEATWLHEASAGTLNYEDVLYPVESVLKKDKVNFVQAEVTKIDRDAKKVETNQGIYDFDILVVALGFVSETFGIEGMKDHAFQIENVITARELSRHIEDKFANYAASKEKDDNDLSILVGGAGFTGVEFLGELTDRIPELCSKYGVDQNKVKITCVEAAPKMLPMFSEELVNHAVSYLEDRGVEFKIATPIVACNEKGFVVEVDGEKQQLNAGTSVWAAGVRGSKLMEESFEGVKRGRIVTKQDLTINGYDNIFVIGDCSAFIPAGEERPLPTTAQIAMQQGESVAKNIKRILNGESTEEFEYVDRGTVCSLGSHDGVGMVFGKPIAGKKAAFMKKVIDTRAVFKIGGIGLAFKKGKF

In turn, `COc1ccc2nc(C)ccc2c1` [compound 15] gave a Ki of 8.9 ± 1 µM.

Usually Ki stands for a dissociation constant, usually derived from enzyme kinetics or from competition with a known ligand. Low values mean a stronger hold on the target, high ones a looser hold on the target.
